Laboratory results published in PubChem BioAssay AID328 (DTP/NCI, 2004).
“And” between values parts separate entries of the source, which are not always exact repeats. Identical values can stand only once. Inconclusive results and toxic doses are left out.

Test system: BDF1 mice, P388 leukemia ip, median survival T/C
Experiment: NCI In Vivo Anticancer Drug Screen. Data for tumor model P388 Leukemia (intraperitoneal) in B6D2F1 (BDF1) mice
Conditions: endpoint: median survival time, higher = longer survival
Outline: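 Vehicle-dosed animals serve as the reference; survival of compound-dosed, tumour-implanted mice is divided by it.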

[1] = dose: 12.5 mg/kg/injection, schedule: Q01DX009 (ip), vehicle: Klucel (hydroxypropylcellulose) (HPC)
[2] = dose: 25.0 mg/kg/injection, schedule: Q01DX009 (ip), vehicle: Klucel (hydroxypropylcellulose) (HPC)
[3] = dose: 50.0 mg/kg/injection, schedule: Q01DX009 (ip), vehicle: Klucel (hydroxypropylcellulose) (HPC)
[4] = dose: 50.0 mg/kg/injection, schedule: Q01DX009 (ip), vehicle: saline with Tween-80
[5] = dose: 100.0 mg/kg/injection, schedule: Q01DX009 (ip), vehicle: saline with Tween-80
[6] = dose: 200.0 mg/kg/injection, schedule: Q01DX009 (ip), vehicle: saline with Tween-80
[7] = dose: 50.0 mg/kg/injection, schedule: Q01DX009 (ip), vehicle: saline
[8] = dose: 50.0 mg/kg/injection, schedule: Q04DX003 (ip), vehicle: saline
[9] = dose: 100.0 mg/kg/injection, schedule: Q04DX003 (ip), vehicle: saline
[10] = dose: 200.0 mg/kg/injection, schedule: Q01DX009 (ip), vehicle: saline
[11] = dose: 200.0 mg/kg/injection, schedule: Q04DX003 (ip), vehicle: saline
[12] = dose: 100.0 mg/kg/injection, schedule: Q01DX001 (ip), vehicle: saline
[13] = dose: 100.0 mg/kg/injection, schedule: Q01DX009 (ip), vehicle: saline
[14] = dose: 100.0 mg/kg/injection, schedule: Q04DX003 (ip), vehicle: saline with Tween-80

With `CCCCCCCCOC(=O)c1[nH]cnc1/N=N\N(C)C` the T/C [1] was 95 % of control, the T/C [2] was 95 % of control and the T/C [3] was 90 % of control.
`CN=C1N[N+]2=CCCCC2S1` (stereo not given) was tested, and the T/C (dose: 60.0 mg/kg/injection, schedule: Q01DX009 (ip), vehicle: saline) was 163 % of control and the T/C (dose: 120.0 mg/kg/injection, schedule: Q01DX009 (ip), vehicle: saline) was 95 % of control.
With `CCCCCCCCCOCC1CO1` (stereo not given) the T/C [4] was 111 % of control, the T/C [5] was 110 % of control and the T/C [6] was 101 % of control.
With `O=[n+]1c2c(n([O-])c3ccccc31)-c1cccc3cccc-2c13` the T/C (dose: 25.0 mg/kg/injection, schedule: Q01DX010 (ip), vehicle: saline) was 95 % of control, the T/C (dose: 50.0 mg/kg/injection, schedule: Q01DX010 (ip), vehicle: saline) was 91 % of control and the T/C (dose: 100.0 mg/kg/injection, schedule: Q01DX010 (ip), vehicle: saline) was 91 % of control.
`CCCC(NC(=O)OCc1ccccc1)C(=O)O` (stereo not given) was tested, and the T/C [5] was 105 % of control and the T/C [6] was 105 % of control.
In the case of `COc1cc(-c2ccc(N=Nc3c(O)ccc4ccccc34)c(OC)c2)ccc1N=Nc1ccc2c(S(=O)(=O)O)cc(S(=O)(=O)O)c(N)c2c1O`, the T/C [7] is reported as 111 % of control, the T/C [8] is reported as 104 % of control and the T/C [9] is reported as 100 % of control. For the same compound, the T/C [10] was 105 % of control and the T/C [11] was 100 % of control.
For `CC1(C)CC(C(N)=O)C(C)(C)N1O` (stereo not given), the T/C [12] was 109 % of control, the T/C (dose: 200.0 mg/kg/injection, schedule: Q01DX001 (ip), vehicle: saline) was 86 % of control and the T/C (dose: 400.0 mg/kg/injection, schedule: Q01DX001 (ip), vehicle: saline) was 100 % of control.
`O=[N+]([O-])c1cccc(CS(=O)(=O)c2ccccc2)c1-c1c(CS(=O)(=O)c2ccccc2)cccc1[N+](=O)[O-]` was tested, and the T/C (dose: 100.0 mg/kg/injection, schedule: Q04DX003 (ip), vehicle: saline sonified) was 95 % of control, the T/C (dose: 200.0 mg/kg/injection, schedule: Q04DX003 (ip), vehicle: saline sonified) was 100 % of control and the T/C (dose: 400.0 mg/kg/injection, schedule: Q04DX003 (ip), vehicle: saline sonified) was 86 % of control.
`CC1NC(C(=O)O)Cc2cc(O)c(O)cc21` (stereo not given) was tested, and the T/C [1] was 109 % of control, the T/C [2] was 109 % of control and the T/C [3] was 92 % of control and 99 % of control. For the same compound, the T/C (dose: 100.0 mg/kg/injection, schedule: Q01DX009 (ip), vehicle: Klucel (hydroxypropylcellulose) (HPC)) was 101 % of control.
With `O=C1NN=C(c2ccc(Cl)cc2)CS1` the T/C [4] was 103 % of control and the T/C [5] was 103 % of control.
In the case of `Nc1cc(Cl)ccc1O`, the T/C [7] is reported as 114 % of control, the T/C [13] is reported as 97 % of control and the T/C [10] is reported as 116 % of control.
`CN(C)c1ccccc1.[C-]#[O+].[C-]#[O+].[C-]#[O+].[Cr]` was tested, and the T/C [14] was 91 % of control.
In the case of `Nc1ncnc2c1ncn2C1CC(CO)C(O)C1O` (stereo not given), the T/C (dose: 6.25 mg/kg/injection, schedule: Q01DX009 (ip), vehicle: carboxymethylcellulose (CMC)) is reported as 100 % of control and the T/C (dose: 12.5 mg/kg/injection, schedule: Q01DX009 (ip), vehicle: carboxymethylcellulose (CMC)) is reported as 95 % of control.
In the case of `CNC(=N)c1ccc(NC(=N)c2ccc(NC(=O)Nc3ccc(NC(=O)Nc4ccc(C(=N)Nc5ccc(C(=N)NC)cc5)cc4)cc3)cc2)cc1`, the T/C (dose: 4.0 mg/kg/injection, schedule: Q04DX003 (ip), vehicle: Klucel (hydroxypropylcellulose) (HPC)) is reported as 154 % of control, the T/C (dose: 6.0 mg/kg/injection, schedule: Q04DX003 (ip), vehicle: Klucel (hydroxypropylcellulose) (HPC)) is reported as 150 % of control and 154 % of control and the T/C (dose: 7.0 mg/kg/injection, schedule: Q01DX009 (ip), vehicle: Klucel (hydroxypropylcellulose) (HPC)) is reported as 161 % of control. The T/C (dose: 9.0 mg/kg/injection, schedule: Q04DX003 (ip), vehicle: Klucel (hydroxypropylcellulose) (HPC)) was 159 % of control, the T/C (dose: 11.0 mg/kg/injection, schedule: Q01DX009 (ip), vehicle: Klucel (hydroxypropylcellulose) (HPC)) was 150 % of control and the T/C (dose: 13.0 mg/kg/injection, schedule: Q04DX003 (ip), vehicle: Klucel (hydroxypropylcellulose) (HPC)) was 176 % of control and 177 % of control. The T/C (dose: 16.5 mg/kg/injection, schedule: Q01DX009 (ip), vehicle: Klucel (hydroxypropylcellulose) (HPC)) was 192 % of control, the T/C (dose: 20.0 mg/kg/injection, schedule: Q04DX003 (ip), vehicle: Klucel (hydroxypropylcellulose) (HPC)) was 153 % of control and the T/C [2] was 231 % of control. For the same compound, the T/C (dose: 30.0 mg/kg/injection, schedule: Q04DX003 (ip), vehicle: Klucel (hydroxypropylcellulose) (HPC)) was 176 % of control, the T/C (dose: 44.0 mg/kg/injection, schedule: Q04DX003 (ip), vehicle: Klucel (hydroxypropylcellulose) (HPC)) was 160 % of control and 207 % of control and the T/C (dose: 67.0 mg/kg/injection, schedule: Q04DX003 (ip), vehicle: Klucel (hydroxypropylcellulose) (HPC)) was 173 % of control and 207 % of control. The T/C (dose: 100.0 mg/kg/injection, schedule: Q04DX003 (ip), vehicle: Klucel (hydroxypropylcellulose) (HPC)) was 230 % of control (2×) and 156 % of control and the T/C (dose: 150.0 mg/kg/injection, schedule: Q04DX003 (ip), vehicle: Klucel (hydroxypropylcellulose) (HPC)) was 160 % of control and 211 % of control.
`O=P(Oc1cccc2ccccc12)(N1CC1)N1CC1` was tested, and the T/C [5] was 181 % of control, the T/C [14] was 122 % of control and the T/C (dose: 150.0 mg/kg/injection, schedule: Q01DX009 (ip), vehicle: saline with Tween-80) was 231 % of control. For the same compound, the T/C (dose: 200.0 mg/kg/injection, schedule: Q04DX003 (ip), vehicle: saline with Tween-80) was 150 % of control, the T/C (dose: 264.0 mg/kg/injection, schedule: Q04DX003 (ip), vehicle: saline with Tween-80) was 200 % of control and the T/C (dose: 400.0 mg/kg/injection, schedule: Q04DX003 (ip), vehicle: saline with Tween-80) was 181 % of control and 220 % of control.
With `COc1cc2c(cc1OCc1ccccc1)C(C#N)N(C(=O)c1ccccc1)C=C2` (stereo not given) the T/C (dose: 25.0 mg/kg/injection, schedule: Q01DX009 (ip), vehicle: saline) was 109 % of control, the T/C (dose: 25.0 mg/kg/injection, schedule: Q04DX003 (ip), vehicle: saline) was 97 % of control and the T/C [7] was 100 % of control. For the same compound, the T/C [8] was 95 % of control, the T/C [13] was 97 % of control and the T/C [9] was 97 % of control. For the same compound, the T/C [10] was 98 % of control, the T/C [11] was 88 % of control and the T/C (dose: 400.0 mg/kg/injection, schedule: Q01DX009 (ip), vehicle: saline) was 100 % of control. For the same compound, the T/C (dose: 400.0 mg/kg/injection, schedule: Q04DX003 (ip), vehicle: saline) was 94 % of control.
With `C=CCOc1ccccc1N/N=C(\Cl)C(=O)OCC` the T/C [4] was 119 % of control.
With `CC1OC(OCc2cc(O)c3c(c2)C(C2OC(CO)C(O)C(O)C2O)c2cccc(O)c2C3=O)C(O)C(O)C1O` (stereo not given) the T/C (dose: 50.0 mg/kg/injection, schedule: Q04DX003 (ip), vehicle: water) was 105 % of control, the T/C (dose: 100.0 mg/kg/injection, schedule: Q04DX003 (ip), vehicle: water) was 101 % of control and the T/C (dose: 200.0 mg/kg/injection, schedule: Q04DX003 (ip), vehicle: water) was 90 % of control.
In the case of `COC1CC=CC2=C1CCC1C2CC2C(=O)C1(C)CCC2O` (stereo not given), the T/C (dose: 100.0 mg/kg/injection, schedule: Q01DX001 (ip), vehicle: other) is reported as 105 % of control, the T/C (dose: 200.0 mg/kg/injection, schedule: Q01DX001 (ip), vehicle: other) is reported as 100 % of control and the T/C (dose: 400.0 mg/kg/injection, schedule: Q01DX001 (ip), vehicle: other) is reported as 100 % of control.
For `CCCSc1nc(N)nc2nc[nH]c12`, the T/C (dose: 100.0 mg/kg/injection, schedule: Q04DX003 (ip), vehicle: alcohol) was 100 % of control, the T/C (dose: 200.0 mg/kg/injection, schedule: Q04DX003 (ip), vehicle: alcohol) was 104 % of control and the T/C (dose: 400.0 mg/kg/injection, schedule: Q04DX003 (ip), vehicle: alcohol) was 90 % of control.
For `CC[N+](C)(C)CC`, the T/C (dose: 25.0 mg/kg/injection, schedule: Q01DX001 (ip), vehicle: saline) was 105 % of control, the T/C (dose: 50.0 mg/kg/injection, schedule: Q01DX001 (ip), vehicle: saline) was 103 % of control and the T/C [12] was 96 % of control and 117 % of control.
For `COc1cc2ccc3c(c2cc1OC)C=NCC3`, the T/C (dose: 1.56 mg/kg/injection, schedule: Q01DX009 (ip), vehicle: saline) was 100 % of control, the T/C (dose: 1.56 mg/kg/injection, schedule: Q04DX003 (ip), vehicle: saline) was 95 % of control and the T/C (dose: 3.13 mg/kg/injection, schedule: Q01DX009 (ip), vehicle: saline) was 110 % of control. For the same compound, the T/C (dose: 3.13 mg/kg/injection, schedule: Q04DX003 (ip), vehicle: saline) was 100 % of control, the T/C (dose: 6.25 mg/kg/injection, schedule: Q01DX009 (ip), vehicle: saline) was 110 % of control and the T/C (dose: 6.25 mg/kg/injection, schedule: Q04DX003 (ip), vehicle: saline) was 104 % of control.
